Literature values in patent US20240408179A1, “ORAL DELIVERY OF THERAPEUTIC AGENTS” (GUANGZHOU DAZHOU BIOMEDICINE LTD., priority 2021, published 2024).

Assays:
[1] = tested on: T2D patients with high risk of cardiovascular disease events; conditions: empagliflozin group versus placebo group
[2] = humans, co-formulated with SNAC

Compound	relative risk reduction in death from cardiovascular causes [1]	oral bioavailability (BA %) [2]
OC[C@H]1O[C@@H](c2ccc(Cl)c(Cc3ccc(O[C@H]4CCOC4)cc3)c2)[C@H](O)[C@@H](O)[C@@H]1O [empagliflozin]	38%	
semaglutide		0.5-1%
